Laboratory results as given in ChEMBL document CHEMBL3045999, “Synthesis, characterization and antimicrobial activity of 4-amino-1-alkyl pyridinium salts” (Med Chem Res, 2012).
Calls of active or inactive are those of the source. The rule behind the calls is not given here.

How the values were obtained:
[1] = system: Escherichia coli; assay: Antibacterial activity against Escherichia coli NCIM 2065 at 500 ug/disk after 24 hr by disk diffusion method; type: functional; details: NCIM 2065, 24 h, read-out: IZ
[2] = system: Nakaseomyces glabratus; assay: Antifungal activity against Candida glabrata NCIM 3236 at 500 ug/disk after 24 hr by disk diffusion method; type: functional; details: NCIM 3236, 24 h, read-out: IZ
[3] = system: Candida albicans; assay: Antifungal activity against Candida albicans NCIM 3074 at 500 ug/disk after 24 hr by disk diffusion method; type: functional; details: NCIM 3074, 24 h, read-out: IZ
[4] = system: Staphylococcus aureus; assay: Antibacterial activity against Staphylococcus aureus NCIM 5021 at 500 ug/disc after 24 hr by disk diffusion method; type: functional; details: NCIM 5021, 24 h, read-out: IZ
[5] = system: Nakaseomyces glabratus; assay: Fungistatic activity against Candida glabrata NCIM 3236 at 25 ug/disk after 24 hr by disk diffusion method; type: functional, organism-based
[6] = system: Candida albicans; assay: Fungistatic activity against Candida albicans NCIM 3074 at 25 ug/disk after 24 hr by disk diffusion method; type: functional, organism-based
[7] = system: Staphylococcus aureus; assay: Bacteriostatic activity against Staphylococcus aureus NCIM 5021 at 20 ug/disc after 24 hr by disk diffusion method; type: functional, organism-based
[8] = system: Escherichia coli; assay: Bacteriostatic activity against Escherichia coli NCIM 2065 at 20 ug/disk after 24 hr by disk diffusion method; type: functional, organism-based
[9] = system: Candida albicans; assay: Fungistatic activity against Candida albicans NCIM 3074 at 500 ug/disk after 24 hr by disk diffusion method; type: functional, organism-based
[10] = Cytotoxicity against Homo sapiens (human) erythrocytes assessed as hemolytic activity at 124.96 uM after 1 hr; type: cell-based, Erythrocyte; details: read-out: Activity
[11] = system: Candida albicans; assay: Inhibition of Candida albicans phospholipase at 124.96 uM after 30 min
[12] = Cytotoxicity against Homo sapiens (human) erythrocytes assessed as hemolytic activity at 15.62 uM after 1 hr; type: cell-based, Erythrocyte; details: read-out: Activity
[13] = system: Staphylococcus aureus; assay: Antibacterial activity against Staphylococcus aureus NCIM 5021 after 24 hr by NCCLS broth microdilution method; type: functional; details: NCIM 5021, 24 h
[14] = system: Candida albicans; assay: Antifungal activity against Candida albicans NCIM 3074 assessed as inhibition of germ tube formation after 3 to 4 hr; type: functional
[15] = system: Candida albicans; assay: Fungicidal activity against Candida albicans NCIM 3074 after 24 hr by NCCLS broth microdilution method; type: functional; details: NCIM 3074, 24 h
[16] = system: Staphylococcus aureus; assay: Bactericidal activity against Staphylococcus aureus NCIM 5021 after 24 hr by NCCLS broth microdilution method; type: functional; details: NCIM 5021, 24 h
[17] = system: Candida albicans; assay: Antifungal activity against Candida albicans NCIM 3074 after 24 hr by NCCLS broth microdilution method; type: functional; details: NCIM 3074, 24 h
[18] = system: Nakaseomyces glabratus; assay: Fungistatic activity against Candida glabrata NCIM 3236 at 500 ug/disk after 24 hr by disk diffusion method; type: functional, organism-based
[19] = system: Staphylococcus aureus; assay: Bacteriostatic activity against Staphylococcus aureus NCIM 5021 at 500 ug/disc after 24 hr by disk diffusion method; type: functional, organism-based
[20] = system: Escherichia coli; assay: Bacteriostatic activity against Escherichia coli NCIM 2065 at 500 ug/disk after 24 hr by disk diffusion method; type: functional, organism-based

Structure (SMILES) | zone of inhibition at 500 µg/disc [1] [mm] | zone of inhibition at 500 µg/disc [2] [mm] | zone of inhibition at 500 µg/disc [3] [mm] | zone of inhibition at 500 µg/disc [4] [mm] | Activity [9] | Activity [18] | also measured
CCCCCCCCCCCCCC[n+]1ccc(N)cc1 | 6.5 | 8.5 | 9 | 6 |  |  | 
CN[C@@H]1[C@H](O[C@H]2[C@H](O[C@H]3[C@H](O)[C@@H](O)[C@H](N=C(N)N)[C@@H](O)[C@@H]3N=C(N)N)O[C@@H](C)[C@]2(O)C=O)O[C@@H](CO)[C@H](O)[C@H]1O [STREPTOMYCIN] | 32 |  |  | 30 |  |  | Activity [5]: inactive; Activity [6]: inactive
C[C@@H]1[C@H](O)[C@@H](C)/C=C/C=C/C=C/C=C/C=C/C=C/C=C/[C@H](O[C@@H]2O[C@H](C)[C@@H](O)[C@H](N)[C@@H]2O)C[C@@H]2O[C@](O)(C[C@@H](O)C[C@@H](O)[C@H](O)CC[C@@H](O)C[C@@H](O)CC(=O)O[C@H]1C)C[C@H](O)[C@H]2C(=O)O [AMPHOTERICIN B] |  | 14 | 10 |  |  |  | Activity [7]: inactive; Activity [8]: inactive
CCCCCCn1ccc(=N)cc1 | 18 | 10 |  | 21 | Active |  | 
CCCCCCCCCCn1ccc(=N)cc1 | 29 | 26 | 23.5 | 28 |  |  | hemolysis at 1 h, 124.96 µM [10]: 97.4%; inhibition [11]: Active; hemolysis at 1 h, 15.62 µM [12]: 0.57%
CCCCCCCCn1ccc(=N)cc1 | 27 | 22 | 14 | 25 |  |  | 
CCCCCCCCCCCCCCCC[n+]1ccc(N)cc1.[Br-] | 34 | 30 | 26.5 | 36 |  |  | MIC [13]: < 15.6 µM; INH [14]: 15.62 µM; MFC [15]: 31.2 µM; MBC [16]: 15.6 µM; MIC [17]: 15.6 µM
CCCC[n+]1ccc(N)cc1 |  |  |  |  | inactive | inactive | Activity [19]: Active; Activity [20]: Active
CCn1ccc(=N)cc1 |  |  |  |  | inactive | inactive | Activity [19]: inactive; Activity [20]: inactive
CCC[n+]1ccc(N)cc1 |  |  |  |  | inactive | inactive | Activity [19]: Active; Activity [20]: Active
CCCCC[n+]1ccc(N)cc1 | 16 |  |  | 14 | inactive | Active | 
CCCCCCC[n+]1ccc(N)cc1 | 26 | 16 | 10.5 | 25 |  |  | 
